In PubChem BioAssay AID1159565 (GlaxoSmithKline (GSK), 2015):
Active and inactive are the calls of the source. No rule for the calls is given here.

Tested on: T. cruzi-infected H9C2 cardiomyocytes, high-content imaging
Assay: intracellular T. cruzi amastigote inhibition, imaging, H9C2 host cardiomyocytes, host toxicity (AID 1159565);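 also: infected cells incubated 72 h after plating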
[1] = measured here: H9C2 host cell toxicity
[2] = measured here: amastigotes per cell

COc1ccc2ncc(=O)n(CCN3CCOC(CNCc4ccc(C(F)(F)F)cc4F)C3)c2n1 (stereo not given)
IC50: 1600 nM | IC50 [1]: > 50000 nM | IC50 [2]: 630 nM

CN(Cc1cc2ccccc2s1)c1ncc2c(N)nc(N)nc2n1
IC50: 3200 nM | IC50 [1]: 20000 nM | IC50 [2]: 790 nM

CN(Cc1cccnc1)Cc1ccc(N2CCN(C(=O)C3(c4ccc(Cl)cc4)CC3)CC2)nc1
IC50: 1600 nM | IC50 [1]: > 50000 nM | IC50 [2]: 1300 nM

NC(=O)c1cc(F)ccc1Nc1nc(NC2CCC(O)CC2)ncc1Br (stereo not given)
IC50: 2000 nM | IC50 [1]: 500 nM | IC50 [2]: 790 nM

N#Cc1cnc(Nc2cccc(CCN3CCOCC3)c2)nc1Nc1ccccc1C(N)=O
IC50: 3200 nM | IC50 [1]: 13 nM | IC50 [2]: 2000 nM

O=C(CCc1ccc(-c2ccccc2)o1)N1CCN(c2ccc(O)cc2)CC1
IC50: 1300 nM | IC50 [1]: > 50000 nM | IC50 [2]: 790 nM

CNC(=O)C1Cc2ccccc2N1C(=O)Cc1ccc(F)cc1 (stereo not given)
IC50: > 50000 nM (inactive) | IC50 [1]: > 50000 nM | IC50 [2]: > 50000 nM

Cn1c(CC(=O)NNC(=O)c2ccc3ccccc3n2)nc2ccccc21
IC50: 5000 nM | IC50 [1]: > 50000 nM | IC50 [2]: 6300 nM

O=C(COc1nn(-c2ccccc2)c2ncccc12)NCc1ccccc1
IC50: > 50000 nM (inactive) | IC50 [1]: > 50000 nM | IC50 [2]: 32000 nM

CN(CC1CCCO1)S(=O)(=O)c1ccc(C(=O)Nc2nc(-c3ccccn3)cs2)cc1 (stereo not given)
IC50: 2000 nM | IC50 [1]: 20000 nM | IC50 [2]: 1300 nM

O=C(Nc1ccc(S(=O)(=O)N2CCCC2)cc1)c1ccc([N+](=O)[O-])s1
IC50: 200 nM | IC50 [1]: 1600 nM | IC50 [2]: 200 nM

Cc1cc2nc(CN(C)Cc3ncccc3C)[nH]c2cc1C
IC50: 1000 nM | IC50 [1]: 13000 nM | IC50 [2]: 500 nM

CC(Cn1ccnc1)NC(=O)C1CC1c1cccc(Cl)c1Cl (stereo not given)
IC50: 250 nM | IC50 [1]: > 50000 nM | IC50 [2]: 200 nM

COc1ccc(S(=O)(=O)NC(C)C)cc1Nc1ncc(-c2cccc(F)c2)cn1
IC50: 400 nM | IC50 [1]: > 50000 nM | IC50 [2]: 320 nM

CS(=O)(=O)c1ccccc1C(=O)N(Cc1ccccc1)c1ccccc1
IC50: > 50000 nM (inactive) | IC50 [1]: > 50000 nM | IC50 [2]: 40000 nM

CN(C)CCN(C)Cc1ccc(F)cc1NS(=O)(=O)c1ccc(Cl)c(Cl)c1
IC50: 2500 nM | IC50 [1]: 6300 nM | IC50 [2]: 2000 nM

Cc1ccc(S(=O)(=O)Cn2nnnc2C(c2cccnc2)N2CCN(c3ccccc3)CC2)cc1 (stereo not given)
IC50: 320 nM | IC50 [1]: > 50000 nM | IC50 [2]: 320 nM

COc1ccc(-c2cnc(C)o2)cc1S(=O)(=O)Nc1ccc(C)cc1C
IC50: 3200 nM | IC50 [1]: > 50000 nM | IC50 [2]: 3200 nM

O=C(Nc1ccccc1)Nc1nc(-c2ccccn2)cs1
IC50: 1000 nM | IC50 [1]: 1000 nM | IC50 [2]: 630 nM

COc1ccc(NS(=O)(=O)c2cc(NC(=O)Cc3ccc(C)cc3)ccc2N2CCOCC2)cc1
IC50: 5000 nM | IC50 [1]: > 50000 nM | IC50 [2]: 2500 nM

O=S(=O)(NCC(c1cccnc1)N1CCN(c2ccccc2F)CC1)c1ccc(F)cc1 (stereo not given)
IC50: 200 nM | IC50 [1]: > 50000 nM | IC50 [2]: 200 nM

O=C1COC(c2ccccc2)(c2ccccc2)CN1C1CCN(Cc2ccc(-n3ccnc3)cc2)CC1
IC50: 2000 nM | IC50 [1]: 32000 nM | IC50 [2]: 500 nM

N#Cc1ccc(S(=O)(=O)N2CCN(Cc3cccc(-c4ccncc4)c3)CC2)cc1
IC50: 250 nM | IC50 [1]: 25000 nM | IC50 [2]: 200 nM

O=c1ccc2ccc(F)c3c2n1C[C@H]3CN1CCN(CC(O)c2cc3c(cn2)OCS3)CC1 (stereo not given in full)
IC50: 630 nM | IC50 [1]: > 50000 nM | IC50 [2]: 320 nM

Cc1nc2c(-c3cccs3)c(C)nn2c(NCCO)c1C
IC50: 32000 nM | IC50 [1]: > 50000 nM | IC50 [2]: 16000 nM

CN(C)S(=O)(=O)c1ccc(-c2cnc(N)c(-c3nc4ccc(F)cc4[nH]3)c2)cc1
IC50: > 50000 nM (inactive) | IC50 [1]: 1300 nM | IC50 [2]: > 50000 nM

NC(=O)c1ccccc1Nc1nc(NC2CCCCC2)nc2[nH]ccc12
IC50: 1000 nM | IC50 [1]: 25000 nM | IC50 [2]: 1000 nM

Cc1nn(C2CCS(=O)(=O)C2)c(C)c1CN(C)C(=O)C=Cc1sc2ccccc2c1Cl (stereo not given)
IC50: 500 nM | IC50 [1]: > 50000 nM | IC50 [2]: 320 nM

c1ccc(Nc2nc3ccccc3[nH]2)nc1
IC50: 25000 nM | IC50 [1]: 10000 nM | IC50 [2]: 10000 nM

Cc1ccc(C)c(-n2nnnc2Sc2nc([N+](=O)[O-])nn2C)c1
IC50: 790 nM | IC50 [1]: > 50000 nM | IC50 [2]: 250 nM

COc1ccc(C(=O)Nc2ccc(NC(=O)CO)cc2)cc1
IC50: > 50000 nM (inactive) | IC50 [1]: > 50000 nM | IC50 [2]: > 50000 nM

COc1ccc(-c2ccc3nnc(-c4ccc(O)c(OC)c4)n3c2)cn1
IC50: 3200 nM | IC50 [1]: > 50000 nM | IC50 [2]: 2000 nM

CCOc1ccc(NC(=O)C=Cc2ccc(CC)o2)cc1
IC50: 25000 nM | IC50 [1]: > 50000 nM | IC50 [2]: 16000 nM

CC(C)(C)c1cc(NC2CC2)nc(-c2ccccn2)n1
IC50: 1600 nM | IC50 [1]: 320 nM | IC50 [2]: 1300 nM

O=C(c1cc2cc(Cl)ccc2[nH]1)N1CCCCC1c1cccnc1 (stereo not given)
IC50: 130 nM | IC50 [1]: 32000 nM | IC50 [2]: 130 nM
